Source: paper PMC8468767, “Optimisation of a Microfluidic Method for the Delivery of a Small Peptide” (Pharmaceutics, 2021)
In brackets after ≈: the same amount, converted by molar mass. Several values for one entry are separate records, joined by “and”; a condition that tells them apart may be missing. Equal entries are not always repeated. Bridge positions count the residues as written; N and C are the ends. Square brackets hold non-standard residues; d marks the D form. Peptide text beside a SMILES is read from it. * marks the point of attachment. Hydrocinnamoyl = O=C(CCc1ccccc1)*; dCha = N[C@H](CC1CCCCC1)C(=O)O; Orn = NCCC[C@H](N)C(=O)O

How the values were obtained:
[1] = Solubility of the peptide in water; type: physicochemical; settings: method not described
[2] = mice, cited from earlier work
Text: The hexapeptide, phenylpropanoic acid-[ornithine-proline-d-cyclohexylalanine-tryptophan-arginine] (HC-[OPdChaWR]) is an antagonist of the C5a receptor 1 (C5aR1) of the innate immune complement cascade.

[3] = Plasma pharmacokinetics after a single IV dose in mice; type: in vivo; settings: male C57BL/6J mice, LC-MS/MS
Description: The C5aR1 peptide antagonist concentrations were quantified by a previously developed and validated LC–MS/MS method. Briefly, the LC–MS/MS system consisted of an API 3200 (AB SCIEX) triple quadrupole LC–MS/MS mass spectrometer coupled with an Agilent 1200 series HPLC system (Agilent Technologies, Santa Clara CA, USA). For sample processing, 10 µL of the solution containing the C5aR1 peptide antagonist was mixed with 10 µL of internal standard (AcF-[OPdChaWR]) dissolved in solvent (ACN) followed by sample processing, extraction, supernatant isolation, drying, and reconstitution in a 75% methanol-in-water solution. A small volume of processed sample (approximately 50 µL) was used for the LC–MS measurement. The autosampler was set at 4 °C and the column oven temperature was maintained in the range of 25 ± 1 °C. The system control and data acquisition were executed by Analyst software (AB SCIEX, Applied Biosystems Inc., Framingham, MA, USA, version 1.5.1). Chromatographic separation was implemented using a Kinetex EVO C18 analytical column (100 mm × 2.1 mm, 100 Å, 5 µm, Phenomenex Inc., Torrance, CA, USA) under binary gradient conditions using mobile phase A (milliQ water containing 0.1% formic acid) and mobile phase B (acetonitrile containing 0.1% formic acid) with a variable flow rate, as described in Kumar et al..
The plasma pharmacokinetic (PK) profile and biodistribution of peptide-loaded nanoparticles (1 mg/kg equivalent dose of free peptide) vs. free peptide were assessed in mice after intravenous (IV; via tail vein) dosing. Serial blood samples were collected via a tail vein using a microsampling technique. Blood samples were collected at 0.04, 0.25, 0.5, 0.75, 1, 1.5, […], 4, 6, and 24 h for both groups and then 48, 72, 96, and 120 h for the nanoparticle group. The blood samples were centrifuged at 2000× g for 10 min at 4 °C, and the separated plasma samples (10 µL) were collected, diluted with 100 µL of milliQ water and 10 µL of internal standard, filtered through Microcon®-10 centrifugal filters (Merck, Melbourne, VIC, Australia) to separate nanoparticles from released peptide, and stored at −80 °C until time of analysis. For tissue distribution, on the terminal day, i.e., day 1 for native peptide and day 5 for the nanoparticle group, animals were transcardially perfused using PBS solution to remove circulatory peptide/formulation, and tissue samples were collected, processed as described in our previously published method, and filtered as mentioned above.
On the day of analysis, samples were processed for C5aR1 peptide antagonist concentrations using the above-mentioned LC–MS/MS method as described previously. […]

- solubility in water [1]: 1000 µg/mL (≈ 1190 µM)
- time for which plasma peptide levels are measurable after dosing ([3]; single IV 1 mg/kg peptide equivalent, plasma): unmeasurable after 6 h post-dosing
- MRT ([3]; mouse, single IV 1 mg/kg peptide equivalent, plasma, two-compartmental model, n = 4, read-out: mean residence time (MRT)): 45.6 min
- AUC(0-t) ([3]; mouse, single IV 1 mg/kg, plasma, linear trapezoidal rule, n = 4, read-out: systemic exposure (AUC0-t)): 3830 ng·h/mL
- half-life ([3]; mouse, single IV (tail vein) 1 mg/kg peptide equivalent, plasma filtered (Microcon-10) so released peptide is measured, two-compartmental model, n = 4, read-out: terminal elimination half-life (t1/2) (converted)): 50.4 min
SMILES: N=C(N)NCCC[C@@H]1NC(=O)[C@H](Cc2c[nH]c3ccccc23)NC(=O)[C@@H](CC2CCCCC2)NC(=O)[C@@H]2CCCN2C(=O)[C@@H](NC(=O)CCc2ccccc2)CCCNC1=O [HC-[OPdChaWR], phenylpropanoic acid-[ornithine-proline-d-cyclohexylalanine-tryptophan-arginine]] (Hydrocinnamoyl-[Orn]P[dCha]WR; lactam 1-C)
- plasma half-life in vivo ([2]; intravenous (IV) injection): 10.2 min
- t1/2 values reported previously ([2]; listed as free peptide): 10.2 min and 19.8 min
